The test system of data set [1] is rat adipocytes. Briefly: permeability into cell interiors (intact cell system, lipogenesis). In kind it is cell-based. The conditions noted are these: graded in words. As to the method:
Rat adipocytes were prepared essentially by the method of Rodbell, 1964. The fat pads of three rats were cut into small pieces with scissors and digested in 3 ml of Krebs-Ringer-Bicarbonate (KRB)-buffer containing 0.7% bovine serum albumin (BSA) (pH 7.4) with collagenase (1 mg/ml). The digestion was performed in a 25 ml flexible plastic bottle under an atmosphere of carbogen (95% O2, 5% CO2) for 40 min at 37° C. with vigorous shaking. Five ml of buffer was then added, and the cells were squeezed through a mesh screen. The cells were then allowed to stand for several minutes (in a 15 ml plastic test tube at room temperature, floating) and the buffer underneath was removed. This procedure (suspension, floating and removal of buffer underneath) was repeated three times. For [^14 C-U]glucose incorporation (lipogenesis), the fat cell suspensions (3×10^5 cells/ml) were divided into plastic vials (0.5 ml per vial) and incubated for 60 min at 37° C. under an atmosphere of 95% O2, 5% CO2, with 0.2 mM [U-^14 C]glucose, in either the presence or absence of insulin (100 ng/ml) and the indicated concentrations in FIG. 2 of CBZ-DNPS-TRP-TAU. The reaction was terminated by adding toluene-based scintillation fluid (1.0 ml per vial) and the extracted lipids were counted (Shechter and Karlish, 1980). Fat cell suspensions were pre-incubated for 20 min at 37° C. with increasing concentrations of the inhibitors. Results are expressed in FIG. 2 as the percent of maximal stimulation at the indicated concentrations of inhibitors. In all experiments insulin-stimulated lipogenesis was 4- to 5-fold higher than basal; basal ~2000 cpm per 3×10^5 cells/h; Vinsulin 8000-10,000 cpm per 3×10^5 cells/h.
(§1) Various derivatives according to the invention in which R^1 is benzyloxycarbonyl (CBZ) or t-butoxycarbonyl (t-Boc), R^2 is --SO3 H or --PO3 H, n is 1,2 or 3, and R^3 is H, 2-nitrophenylthio (NPS) or 2,4-dinitrophenylthio (DNPS) were prepared and examined in cell-free and intact cell systems. The cell-free assay is PolyGlu4 Tyr phosphorylation by partially purified insulin receptor as described in Example 3. The assay in intact cells (namely, lipogenesis) was carried out as described in Example 4.

The target in data set [2] is T1, insulin receptor tyrosine kinase (InsRTK) (Rattus norvegicus, UniProt P15127). Briefly: PolyGlu4 Tyr phosphorylation by partially purified (wheat-germ-agglutinin purified) rat liver insulin receptor, cell-free. In kind it is biochemical. Further details: wheat-germ-agglutinin purified rat liver insulin receptor; from tissue; host or cells: rat liver (wheat-germ-agglutinin purified). The conditions noted are these: for Relative cell-free potency in inhibiting InsRTK: CBZ-DNPS-TRP-Taurine 100. As to the method: An assay of PolyGlu4 Tyr phosphorylation by partially purified insulin receptor was run for 30 min at 22° C. in 60 μl of 50 mM Hepes (pH 7.4)-0.1% Triton X-100 containing wheat-germ-agglutinin purified rat liver insulin receptor (1 μg protein), MgCl2 25 mM; MnCl2, 1 mM, ATP 17 μM, insulin 0.1 μM, PolyGlu4 Tyr, 0.17 mg/ml and the indicated concentrations in FIG. 1 of CBZ-DNPS-TRP-TAU. Phosphotyrosine content in PolyGlu4 Tyr was determined by a radioimmunoassay procedure (Shisheva et al., 1991). […] The inhibitory potency of other derivatives of formula I on InsRTK-catalyzed PolyGlu4 Tyr phosphorylation in cell-free experiments was determined. […] For comparison, the IC50 values for AC-TRP-TAU and L-tryptophan are 5 mM and >30 mM, respectively.
as §1
Target sequence in this assay (P15127 764-1383 limits assumed): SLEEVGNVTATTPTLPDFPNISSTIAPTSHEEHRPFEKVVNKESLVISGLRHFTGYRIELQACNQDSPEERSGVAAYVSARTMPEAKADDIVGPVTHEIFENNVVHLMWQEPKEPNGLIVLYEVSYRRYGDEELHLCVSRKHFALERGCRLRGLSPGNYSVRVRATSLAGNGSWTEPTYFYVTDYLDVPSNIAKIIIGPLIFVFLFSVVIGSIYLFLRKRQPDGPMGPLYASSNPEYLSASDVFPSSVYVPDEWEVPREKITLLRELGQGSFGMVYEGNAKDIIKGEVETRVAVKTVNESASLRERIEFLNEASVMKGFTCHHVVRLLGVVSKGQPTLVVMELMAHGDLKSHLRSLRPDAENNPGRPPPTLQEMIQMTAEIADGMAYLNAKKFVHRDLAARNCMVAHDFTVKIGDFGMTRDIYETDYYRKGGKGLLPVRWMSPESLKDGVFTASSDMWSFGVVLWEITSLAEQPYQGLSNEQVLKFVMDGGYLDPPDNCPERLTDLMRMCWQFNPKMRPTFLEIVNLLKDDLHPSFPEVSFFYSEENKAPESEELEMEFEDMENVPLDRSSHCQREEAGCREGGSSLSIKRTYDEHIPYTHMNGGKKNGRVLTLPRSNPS
Target sequence in this assay (P15127 27-759 partner limits assumed): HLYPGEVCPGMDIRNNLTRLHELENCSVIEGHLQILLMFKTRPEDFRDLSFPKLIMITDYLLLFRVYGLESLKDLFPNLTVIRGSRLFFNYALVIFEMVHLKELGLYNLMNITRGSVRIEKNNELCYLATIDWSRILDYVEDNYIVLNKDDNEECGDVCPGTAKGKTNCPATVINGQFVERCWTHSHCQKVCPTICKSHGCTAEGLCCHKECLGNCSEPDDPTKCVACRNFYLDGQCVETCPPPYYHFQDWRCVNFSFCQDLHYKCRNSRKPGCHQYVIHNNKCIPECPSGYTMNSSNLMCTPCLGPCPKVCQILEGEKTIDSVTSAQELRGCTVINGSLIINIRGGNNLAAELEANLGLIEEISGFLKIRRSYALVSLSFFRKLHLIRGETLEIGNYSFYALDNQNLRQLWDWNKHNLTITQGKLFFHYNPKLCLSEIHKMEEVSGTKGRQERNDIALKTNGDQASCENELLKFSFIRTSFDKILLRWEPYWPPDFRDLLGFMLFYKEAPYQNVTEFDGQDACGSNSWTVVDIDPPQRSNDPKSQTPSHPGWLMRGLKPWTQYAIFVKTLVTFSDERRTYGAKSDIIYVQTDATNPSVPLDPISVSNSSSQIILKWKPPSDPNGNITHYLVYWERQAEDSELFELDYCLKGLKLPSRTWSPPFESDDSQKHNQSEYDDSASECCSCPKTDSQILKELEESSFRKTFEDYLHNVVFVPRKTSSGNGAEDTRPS

Data set [3] is described as follows: solubility. The note with it: water.
The subject of data set [4] is insulin-stimulated lipogenesis in rat adipocytes. Briefly: insulin-stimulated lipogenesis in rat adipocytes ([U-14C]glucose incorporation). Format: cell-based. The conditions noted are these: insulin 100 ng/ml. As for the experimental part: The fat pads of three rats were cut into small pieces with scissors and digested in 3 ml of Krebs-Ringer-Bicarbonate (KRB)-buffer containing 0.7% bovine serum albumin (BSA) (pH 7.4) with collagenase (1 mg/ml). […] Five ml of buffer was then added, and the cells were squeezed through a mesh screen. The cells were then allowed to stand for several minutes (in a 15 ml plastic test tube at room temperature, floating) and the buffer underneath was removed. This procedure (suspension, floating and removal of buffer underneath) was repeated three times. […] Fat cell suspensions were pre-incubated for 20 min at 37° C. with increasing concentrations of the inhibitors. Results are expressed in FIG. 2 as the percent of maximal stimulation at the indicated concentrations of inhibitors.

Data set [5] has as its system murine T-cell lymphoma (LB3). Briefly: insulin-dependent proliferation of murine T-cell lymphoma (LB3), thymidine incorporation. The note with it: 30,000 LB3 cells; insulin or other mitogens. In kind it is cell-based. As for the experimental part:
LB cells were removed from the peritoneal cavity of BALB/c mice, washed and resuspended in RPMI-1640. Then a continuous line designated LB3 was established in "LB medium" (50% RPMI-1640 plus 50% DCCM-1 in 10% fetal calf serum (FCS)). The LB3 cells were incubated (37° C., 5% CO2) in microplate wells (Nunc, Roskilde, Denmark) with 0.2 ml RPMI-1640 alone and in the same medium containing insulin, fetal calf serum (FCS) or both, and different concentrations of the compound CBZ-DNPS-TRP-TAU as indicated in FIG. 3. Proliferation capacity was determined by thymidine incorporation (^3 H-TdR, 1 μCi/well, specific activity 5 Ci/mM), added to the cells 24 hours later. In a typical experiment, cpm of ^3 H-thymidine incorporated into 30,000 cells was 12-14 fold higher in the presence of insulin or other mitogens than in their absence.
Background: Dividing cells build labelled thymidine or BrdU into new DNA.

The test system of data set [6] is isoproterenol-mediated lipolysis. Briefly: isoproterenol-mediated lipolysis in rat adipocytes (glycerol release). In kind it is cell-based. The conditions noted are these: isoproterenol 1 μM alone. As for the experimental part:
In general there are two classes of protein kinases (PKs) in mammalian tissues: (a) PKs which phosphorylate tyrosine moieties in proteins (to phosphotyrosine), and (b) PKs which phosphorylate serine and threonine moieties (to phosphoserine and phosphotreonine). […] An example for such a metabolic effect is lipolysis which depends on protein kinase A. Rat adipocytes (prepared by the method of Rodbell, 1964) were incubated with isoproterenol alone (1 μM) or isoproterenol with CBZ-DNPS-TRP-TAU (200 μM) for one hour at 37° C. The amount of glycerol released from the cells was then determined by spectroscopic procedure (Shechter, 1982).

The target in data set [7] is T1, insulin receptor tyrosine kinase (InsRTK). Briefly: inactivation of InsRTK by affinity reagent. In kind it is biochemical. The conditions noted are these: covalent affinity reagent. The source says:
Thus, to design and synthesize a low molecular weight blocker of InsRTK able to permeate into cell interiors, we first searched for an affinity reagent that would covalently bind and inactivate the InsRTK at low concentrations. […] The complementary hydrophilic domain of the InsRTK contains a lysine moiety that reacts covalently with the active ester and is likely to participate in substrate binding or catalysis. Equipped with this information we have synthesized a family of competitive inhibitors.
Target sequence in this assay (P15127 27-1383): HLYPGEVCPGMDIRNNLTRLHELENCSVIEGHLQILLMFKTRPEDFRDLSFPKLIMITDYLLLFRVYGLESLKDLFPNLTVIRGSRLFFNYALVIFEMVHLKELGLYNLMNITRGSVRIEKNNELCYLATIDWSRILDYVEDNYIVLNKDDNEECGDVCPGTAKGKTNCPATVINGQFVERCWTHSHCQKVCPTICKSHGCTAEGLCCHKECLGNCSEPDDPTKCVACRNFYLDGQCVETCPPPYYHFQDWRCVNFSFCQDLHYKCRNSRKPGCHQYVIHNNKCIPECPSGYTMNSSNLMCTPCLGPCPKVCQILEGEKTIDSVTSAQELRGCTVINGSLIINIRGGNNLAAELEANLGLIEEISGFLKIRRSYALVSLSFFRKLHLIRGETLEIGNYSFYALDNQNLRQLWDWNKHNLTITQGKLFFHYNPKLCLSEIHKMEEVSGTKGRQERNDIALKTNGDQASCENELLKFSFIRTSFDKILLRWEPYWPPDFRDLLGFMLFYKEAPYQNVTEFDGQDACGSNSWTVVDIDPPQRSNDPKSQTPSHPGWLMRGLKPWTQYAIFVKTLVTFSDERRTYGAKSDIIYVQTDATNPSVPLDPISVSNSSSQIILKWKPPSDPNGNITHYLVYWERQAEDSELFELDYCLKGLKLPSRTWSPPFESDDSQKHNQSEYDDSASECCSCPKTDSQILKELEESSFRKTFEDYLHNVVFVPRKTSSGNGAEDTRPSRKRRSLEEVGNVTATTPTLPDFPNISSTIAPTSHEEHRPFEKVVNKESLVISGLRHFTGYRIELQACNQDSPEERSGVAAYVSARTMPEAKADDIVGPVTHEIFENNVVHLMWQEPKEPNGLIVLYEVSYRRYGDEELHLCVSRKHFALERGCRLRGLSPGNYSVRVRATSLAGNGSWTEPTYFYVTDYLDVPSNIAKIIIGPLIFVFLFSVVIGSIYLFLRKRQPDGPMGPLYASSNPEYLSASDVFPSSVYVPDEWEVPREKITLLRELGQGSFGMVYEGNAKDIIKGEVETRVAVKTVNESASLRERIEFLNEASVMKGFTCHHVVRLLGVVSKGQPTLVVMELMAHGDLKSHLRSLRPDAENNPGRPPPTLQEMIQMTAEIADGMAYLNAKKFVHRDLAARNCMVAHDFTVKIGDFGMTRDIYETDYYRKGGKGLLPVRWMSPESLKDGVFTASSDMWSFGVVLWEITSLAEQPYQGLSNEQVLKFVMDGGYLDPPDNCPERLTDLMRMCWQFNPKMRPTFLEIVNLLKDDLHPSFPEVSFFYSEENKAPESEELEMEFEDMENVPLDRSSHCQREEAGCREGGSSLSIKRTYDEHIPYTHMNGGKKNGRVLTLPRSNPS

[8] abbreviates: cell-free, 30 min, 22° C., pH 7.4, ATP 17 μM, insulin 0.1 μM, read-out: IC50 value, InsRTK-catalyzed PolyGlu4 Tyr phosphorylation.

Regarding `CC(C)(C)OC(=O)N[C@@H](Cc1c(Sc2ccc([N+](=O)[O-])cc2[N+](=O)[O-])[nH]c2ccccc12)C(=O)NCCCS(=O)(=O)O` [tBoc-DNPS-TRP-aminopropyl-SO3, tBoc-DNPS-TRP-aminopropylsulfonic acid], in data set [1], the “Permeability into cell interiors” value was “excellent”. The “Relative cell-free potency in inhibiting InsRTK” value in data set [2] came out at 90%.

For the compound `O=C(N[C@@H](Cc1c(Sc2ccc([N+](=O)[O-])cc2[N+](=O)[O-])[nH]c2ccccc12)C(=O)NCCCS(=O)(=O)O)OCc1ccccc1` [CBZ-DNPS-TRP-aminopropyl-SO3, CBZ-DNPS-TRP-aminopropylsulfonic acid], the “Permeability into cell interiors” value in data set [1] was “excellent”. The “Relative cell-free potency in inhibiting InsRTK” value in data set [2] is reported as 70%.

On to `CC(C)(C)OC(=O)N[C@@H](Cc1c(Sc2ccc([N+](=O)[O-])cc2[N+](=O)[O-])[nH]c2ccccc12)C(=O)NCS(=O)(=O)O` [tBoc-DNPS-TRP-aminomethyl-SO3, tBoc-DNPS-TRP-aminomethylsulfonic acid], for which the “Permeability into cell interiors” value in data set [1] was “excellent”. For the same compound, the “Relative cell-free potency in inhibiting InsRTK” value in data set [2] is on record as 80%.

What is called IC50 is the concentration that inhibits the measured activity by half. With `O=C(N[C@@H](Cc1c(Sc2ccccc2[N+](=O)[O-])[nH]c2ccccc12)C(=O)NCCS(=O)(=O)O)OCc1ccccc1` [CBZ-NPS-TRP-TAU], the “Permeability into cell interiors” value in data set [1] is “good”. The 50% inhibitory concentration (IC50) in data set [2] (setting [8]) was determined as 550 µM. Moreover, the “Relative cell-free potency in inhibiting InsRTK” value in data set [2] is given as 30%.

In the case of `O=C(N[C@@H](Cc1c(Sc2ccc([N+](=O)[O-])cc2[N+](=O)[O-])[nH]c2ccccc12)C(=O)NCS(=O)(=O)O)OCc1ccccc1` [CBZ-DNPS-TRP-aminomethyl-SO3, CBZ-DNPS-TRP-aminomethylsulfonic acid], in data set [1], the “Permeability into cell interiors” value was “excellent”. Also, the “Relative cell-free potency in inhibiting InsRTK” value in data set [2] worked out at 90%.

Turning to `O=C(N[C@@H](Cc1c[nH]c2ccccc12)C(=O)NCCCS(=O)(=O)O)OCc1ccccc1` [CBZ-TRP-β-TAU], in data set [2] (setting [8]), the half-maximal inhibitory concentration (IC50) was found to be 3500 µM.

A word on the solubility: it is the concentration that dissolves in the medium under given conditions. A low value points to a poorly soluble substance. Regarding `O=C(N[C@@H](Cc1c[nH]c2ccccc12)C(=O)NCCS(=O)(=O)O)OCc1ccccc1` [CBZ-TRP-TAU], the “Permeability into cell interiors” value in data set [1] is “poor”. For the same compound, the IC50 in data set [2] (setting [8]) worked out at 2700 µM. Besides, the “Relative cell-free potency in inhibiting InsRTK” value in data set [2] is 20%. In addition, in data set [3], the solubility is at most 1300 mM.

In the case of `CC(C)(C)OC(=O)N[C@@H](Cc1c(Sc2ccc([N+](=O)[O-])cc2[N+](=O)[O-])[nH]c2ccccc12)C(=O)NCCS(=O)(=O)O` [tBoc-DNPS-TRP-Taurine, tBoc-DNPS-TRP-aminoethylsulfonic acid], the “Permeability into cell interiors” value in data set [1] is on record as “excellent”. Also, the “Relative cell-free potency in inhibiting InsRTK” value in data set [2] was 95%.

Consider `O=C(N[C@@H](Cc1c[nH]c2ccccc12)C(=O)NCP(=O)(O)O)OCc1ccccc1` [CBZ-TRP-aminomethyl-PO3], for which, in data set [1], the “Permeability into cell interiors” value is given as “poor”. Besides, the “Relative cell-free potency in inhibiting InsRTK” value in data set [2] was found to be 5%.

As for `O=C(O)CC(NC(=O)[C@H](Cc1c(Sc2ccc([N+](=O)[O-])cc2[N+](=O)[O-])[nH]c2ccccc12)NC(=O)OCc1ccccc1)C(=O)O` (some centres unmarked) [CBZ-DNPS-TRP-Aspartic Acid], the “Permeability into cell interiors” value in data set [1] was “good”. Moreover, in data set [2], the “Relative cell-free potency in inhibiting InsRTK” value was determined as 5%.

As for insulin, in data set [4], the “Vinsulin (lipogenesis)” value was 8000-10,000 cpm per 3×10^5 cells/h. The “3H-thymidine incorporation in presence vs absence of insulin” value in data set [5] was 12-14 fold.

Turning to `CC(=O)N[C@@H](Cc1c[nH]c2ccccc12)C(=O)NCCS(=O)(=O)O` [AC-TRP-TAU, reference compound], in data set [2] (setting [8]), the half-inhibitory concentration (IC50) is 5000 µM.

On to `CC(=O)N[C@@H](Cc1c(Sc2ccc([N+](=O)[O-])cc2[N+](=O)[O-])[nH]c2ccccc12)C(=O)NCCS(=O)(=O)O` [Acetyl-DNPS-TRP-Taurine], for which the “Permeability into cell interiors” value in data set [1] is reported as “poor”; in data set [1] (listed as acetyl-DNPS-TRP-TAU), “low permeability”. For the same compound, the “inhibition of InsRTK in words” value in data set [2] (cell-free experiments) was “inhibits InSRTK”. Also, the “Relative cell-free potency in inhibiting InsRTK” value in data set [2] was 80%.

For `N[C@@H](Cc1c[nH]c2ccccc12)C(=O)O` [L-tryptophan, reference compound], the IC50 in data set [2] was above 30000 µM.

As to `CC(C)NCC(O)c1ccc(O)c(O)c1` (centres unmarked) [Isoproterenol, isoproterenol, reference compound], in data set [6] (Rattus norvegicus, Adipocyte, read-out: Percent lipolysis), the activity at 1 µM amounted to 100%. The “Amount of glycerol released” value in data set [6] stood at 165 nmol/3 × 10^5 cells/3 h.

Turning to `CC(C)CC(NC(=O)OCc1ccccc1)C(=O)NCCS(=O)(=O)O` (centres unmarked) [CBZ-leucine-Taurine, reference compound], the “Permeability into cell interiors” value in data set [1] is “poor”. For the same compound, the “Relative cell-free potency in inhibiting InsRTK” value in data set [2] came to 2%.

In turn, `O=C(NC(Cc1ccccc1)C(=O)ON1C(=O)CCC1=O)OCc1ccccc1` (centres unmarked) [CBZ-Phe-OSU, benzyloxycarbonylphenyl-N-hydroxysuccinimide ester] displayed an IC50 in data set [7] of 50 µM.
